Patent publication US20150125452A1, “COMBINATION TREATMENTS COMPRISING C-MET ANTAGONISTS AND B-RAF ANTAGONISTS” (GENENTECH, INC., priority 2011, published 2015)

Key:
[1] = system: BRAF mutant metastatic melanoma patients; test: BRIM2 clinical trial, outcome by plasma HGF level; type: in vivo, human; details: PLX[…]-treated patients
Protocol: Plasma was obtained from metastatic melanoma patients pre-dose cycle one and the concentration of HGF in patient-derived plasma were quantitatively measured using a sandwich enzyme-linked immunosorbent assay (ELISA). Wells of NUNC MaxiSorp microtiter plates were coated (ON, 4° C.) with 0.5 μg/mL of affinity-purified Goat antihuman hepatocyte growth factor polyclonal antibody in 100 μL of coating buffer (0.05M sodium carbonate buffer, pH 9.6) and were then blocked with 0.5% bovine serum albumin (BSA) in assay buffer (PBS, 0.5% BSA, 0.05% P 20, 0.25% CHAPS, 0.35M NaCl, 5 mM EDTA, 10 ppm Proclin300, pH 7.4) for 1 hour at room temperature. Diluted human hepatocyte growth factor controls and plasma samples (100 μL) in assay buffer were loaded in duplicates and incubated for 2 hours at room temperature, followed by the addition of 100 μL of affinity-purified goat antihuman hepatocyte growth factor biotin (150 ng/mL) for an additional 1 hour at room temperature. Avidin-conjugated horseradish peroxidase (40 ng/mL) in PBS, 0.5% BSA, 0.05% P 20, 10 ppm Proclin300, pH 7.4, was added (1 hour, room temperature), and the reaction was visualized by the addition of 100 μL of chromogenic substrate (TMB) for 15 minutes. The reaction was stopped with 1M phosphoric acid and absorbance at 450 nm was measured with reduction at 630 nm with an ELISA plate reader. Plates were washed 3 times with washing buffer (0.05% Tween 20/PBS) after each step. As a reference for quantification, a standard curve was established by a serial dilution of human hepatocyte growth factor (CritRS CR67; 2000-15.625 pg/mL).
HGF levels were log-transformed, and the Kolmogorov-Smirnoff test was used to test the resulting distribution for departure from the Gaussian distribution. The Cox-proportional model was used to test the log-transformed HGF levels for association with the progression free survival (PFS) and overall survival (OS). Association between the response and HGF levels was tested using the Wilcoxon rank-sum test. Kaplan-Meier (KM) curves were used to show display the relationship between the HGF levels and the time-to-event outcomes (PFS and OS). […] The cox-proportional model of the outcome as the function of the continuous HGF level was used to calculate the hazard ratio and corresponding p-value.

[2] = system: BRAF mutant melanoma cell lines; test: Syto 60 cell viability, HGF rescue from PLX[…]; type: cell-based, Human
Protocol: Cells were treated twice weekly for the indicated times. […] Error bars represent mean+/−s.e.m.
Cell viability was assessed using the nucleic acid stain Syto 60 (Invitrogen). Cells (3000-5000 per well) were seeded into 96 well plates and allowed to adhere overnight. The next day, cells were treated with (or without) 50 ng/mL RTK ligand and concomitantly exposed to an increasing concentration range of the relevant kinase inhibitor. […] Cell viability was calculated by dividing the fluorescence obtained from the drug-treated cells by the fluorescence obtained from the control (no drug) treated cells.

928MEL xenografts = test: Xenograft tumour growth assay; type: in vivo, CRL C.B-17 SCID.bg mice; details: for tumor regression, B-raf antagonist plus c-met antagonist versus PLX[…] alone: PLX[…]-treated xenografts
Protocol: […] Differences between the 2 groups were determined using two-way ANOVA (*=0.0008).
All procedures conformed to the guidelines and principles set by the Institutional Animal care and Use Committee of Genentech and were carried out in an AAALAC (Association for the Assessment and Accreditation of Laboratory Animal care) accredited facility. […] Tumor volumes were calculated using the formula (Lx(W×W))/2. A partial response (PR) in this example was defined as a reduction in tumour volume greater than 50% but less than 100%. A complete response (CR) in this example was defined as 100% reduction in tumour volume. […]

[3] = system: kinase-addicted cancer cell lines; test: RTK ligand matrix screen, Syto 60 cell viability; type: cell-based, Human; details: for effect of RTK ligand on conferring drug resistance to kinase inhibitors: 50 ng/mL RTK ligand, 72 h, 41 cell lines
Protocol: (§1) Cell viability was assessed using the nucleic acid stain Syto 60 (Invitrogen). Cells (3000-5000 per well) were seeded into 96 well plates and allowed to adhere overnight. The next day, cells were treated with (or without) 50 ng/mL RTK ligand and concomitantly exposed to an increasing concentration range of the relevant kinase inhibitor. Following 72 hours drug exposure, cells were fixed in 4% formaldehyde, stained with Syto 60 and cell number was assessed using an Odyssey scanner (Li-Cor). Cell viability was calculated by dividing the fluorescence obtained from the drug-treated cells by the fluorescence obtained from the control (no drug) treated cells.
Cell lines. Human cancer cell lines were obtained and tested for sensitivity using an automated platform as previously described (Johannessen, C. M. et al. COT drives resistance to RAF inhibition through MAP kinase pathway reactivation. Nature 468, 968-972, doi:10.1038/nature09627 (2010)). Cell lines were maintained at 37° C. in a humidified atmosphere at 5% CO2 and grown in RPMI 1640 or DMEM/F12 growth media (GIBCO) supplemented with 10% fetal bovine serum (GIBCO), 50 units/mL penicillin and 50 μg/mL streptomycin (GIBCO).
Using 41 different human tumor-derived cell lines with previously defined kinase dependency^7-9, we undertook a “matrix analysis” to examine the effects of 6 different RTK ligands (HGF, EGF, FGF, PDGF, NRG1, IGF)—known to be widely expressed in cancer cells and tumor stroma^10—on drug response. Specifically, we quantified the effect of exposing these cancer cell lines (e.g., AU565 (HER2 amp)) to each ligand on the IC50 for a kinase inhibitor (e.g., lapatinib) that otherwise potently suppresses their growth within 72 hours (FIG. 1A). Nearly all of the kinase-dependent cancer cell lines tested, which included cells derived from multiple tissue types and with distinct kinase dependencies (EGFR, HER2, BRAF, MET, ALK, PDGFR, and FGFR), could be rescued from drug-induced growth inhibition by one or more RTK ligands, highlighting the potentially broad contribution of these ligands to the response to selective kinase inhibitors in kinase-addicted tumor cells (FIG. 1B).

[4] = system: AU565 HER2 amplified breast cancer cells; test: Syto 60 viability and long-term staining with lapatinib and ligands; type: cell-based, Human; details: lapatinib 1 μM, 10 ng/mL NRG1, FGF or combination, 72 h
Protocol: FIGS. 3A-3G: HGF promoted lapatinib resistance in HER2 amplified cell lines. […] HGF rescue is indicated, black squares indicates partial rescue as determined by the initial screen (FIG. 1B). […] Cells were treated every three days for the indicated times. […] FIG. 3D, Immunoblots showing the re-activation of pAKT and pERK in two MET positive (AU565, HCC1954) and one MET negative (BT474) HER2 amplified cell lines. […] FIG. 3E, Representative slides showing MET expression in HER2 positive (3+) breast cancer tissues. FIG. 3F, selection of higher MET expressing AU565 cells following 3× treatments with lapatinib (1 μM) and HGF (50 ng/mL). FIG. 3G. […] Cells were treated twice weekly for the indicated times.
AU565 sells were co-treated with lapatinib (1 μM) in combination with 10 ng/mL NRG1 or FGF. […] Cells were treated with the appropriate kinase inhibitors in the presence of HGF (50 ng/mL). Cells were then treated with either 100 nM PI3K inhibitor (BEZ235) or MAPK inhibitor (AZD6244). Error bars represent mean+/−s.e.m.
as §1

[5] = system: AKT and ERK phosphorylation; test: Immunoblots of survival pathway re-activation; type: cell-based, Human; details: for PI3K/MAPK pathway re-activation by RTK ligand in presence of kinase inhibitor: 50 ng/mL ligand, kinase inhibitor 1 μM, 2 h
Protocol: FIGS. 2A-2C: pro-survival pathway re-activation correlated with RTK ligand rescue. FIG. 2A, Immunoblots showing the effect of acute RTK ligand treatment (50 ng/mL) on AKT and ERK phosphorylation following kinase inhibition (1 μM, 2 h). RTK ligand rescue is indicated, grey squares indicates complete rescue and black squares indicates partial rescue as determined by the initial screen (FIG. 1B). […] Cells were co-treated with 50 ng/mL RTK ligand in the presence of the appropriate secondary kinase inhibitor (0.5 μM) as indicated. […] Error bars represent mean+/−s.e.m. FIG. 2C, Immunoblots showing the effect of acute kinase inhibition (1 μM) in the presence and absence of RTK ligands (50 ng/mL, 2 h) on AKT and ERK phosphorylation. Cells were co-treated with secondary kinase inhibitor (0.5 μM) as appropriate.
Cell lysates were harvested using Nonidet-P40 lysis buffer, supplemented with Halt protease and phosphatase inhibitor cocktail (Thermo Scientific) and immunodetection of proteins was carried out using standard protocols. The phospho-HER2 (Y1248; #2247), HER2 (#2242), phospho-HER3 (Y1289; #4791), phospho-MET (Y1234/5; #3126), PDGFRα (#5241), phospho-FRS2α (Y196; #3864), IGF-1Rβ (#3027), phospho-ALK (Y1604; #3341), AKT (#9272), phospho-ERK (T202/Y204; #9101), ERK (#9102), GAPDH (#2118) and β-Tubulin (#2146) antibodies were purchased from Cell Signaling Technologies. Antibodies to HER3 (SC-285), MET (SC-10), phospho-PDGFRα (SC-12911), FRS2α (SC-8318), FGFR1 (SC-7945), FGFR2 (SC-122), FGFR3 (SC-13121) and ALK (SC-25447) were purchased from Santa Cruz Biotechnologies. Phospho-AKT (S473; #44-621G) antibody was purchased from Invitrogen. Phospho-EGFR (Y1068; ab5644) antibody was purchased from Abeam. EGFR (#610017) antibody was purchased from BD Biosciences. PARP (#14-6666-92) antibody was purchased from eBioscience. Densitometry was carried out using ImageJ software.

[6] = system: kinase-addicted cancer cell lines; test: RTK ligand matrix screen, Syto 60 cell viability; type: cell-based, Human; details: six kinase addicted cell lines, six RTK ligands
[7] = system: HER2-amplified breast cancer cell lines; test: Syto 60 cell viability, ligand rescue from lapatinib; type: cell-based, Human; details: 50 ng/mL ligand, 72 h
Protocol: as §1
The ability of HGF to rescue 3 of 9 tested HER2-amplified breast cancer cell lines from growth inhibition by the HER2 kinase inhibitor lapatinib was also unexpected (FIG. 3A). These 3 cell lines all express MET, and expression was well correlated with the ability of HGF to attenuate lapatinib response (FIG. 3B).

[8] = system: HCC1954 HER2 amplified breast cancer cells; details: lapatinib 5 μM, crizotinib 1 μM, twice weekly
Protocol: Cells were treated twice weekly for the indicated times.
The effects of MET kinase inhibition to delay lapatinib resistance in HCC 1954 cells were examined.

[9] = 10 mice per group, 4 weeks, PR = tumour volume reduction >50% but <100%

PLX4032 was tested, and the “hazard ratio, overall survival with increased HGF” value ([1]; Cox-proportional model, p<0.001) was 1.8, the “hazard ratio, progression free survival with increased HGF” value ([1]; Cox-proportional model, p<0.005) was 1.42 and the “overall survival, HGF above median versus below median” value ([1]; median plasma HGF 334 pg/mL, p<0.001) was “substantially reduced”. The “progression-free survival, HGF above median versus below median” value ([1]; median plasma HGF 334 pg/mL, p=0.005) was “substantially reduced”, the “correlation of MET expression with PLX[…] sensitivity” value ([2]; HGF-rescuable cell lines) was “inversely correlated” and the “partial responses, PLX[…] alone” value (928MEL xenografts; [9]) was 1. The “tumor regression, B-raf antagonist plus c-met antagonist versus PLX[…] alone” value (928MEL xenografts) was “statistically significant improvement in tumor regression”.

In the case of “FGF: recombinant human FGF-basic purchased from Peprotech”, the “effect of RTK ligand on conferring drug resistance to kinase inhibitors” value (“effect of RTK ligand … to kinase inhibitors” for short) [3] is reported as “most broadly active ligands”, the “rescue from kinase inhibition by activating both PI3K and MAPK pathways” value [4] is reported as “additive” and the “PI3K/MAPK pathway re-activation by RTK ligand in presence of kinase inhibitor” value [5] is reported as “only re-activated the MAPK pathway”.

For N.N.[Cl][Pt][Cl] [cisplatin], the “RTK ligand rescue from growth suppressive effects of cisplatin” value [6] was “none of the tested RTK ligands could rescue cells”.

With “PDGF: recombinant human PDGF-AB purchased from Peprotech” the “effect of RTK ligand … to kinase inhibitors” value [3] was “relatively little effect”.

For Cn1c(=O)n(-c2ccc(C(C)(C)C#N)cc2)c2c3cc(-c4cnc5ccccc5c4)ccc3ncc21 [BEZ235, reference compound], the “reversal of HGF-induced rescue by PI3K versus MAPK pathway inhibition” value ([3]; 100 nM BEZ235 or AZD6244, HGF 50 ng/mL, with kinase inhibitor) was “more potent at reversing ligand—induced rescue”.

“NRG1: HER3 ligand, rhNRG1-β1 purchased from R and D Systems” was tested, and the “effect of RTK ligand … to kinase inhibitors” value [3] was “most broadly active ligands”, the “rescue despite activation of receptor and a downstream survival effector” value ([3]; H2228 and H358 cells with HGF, COLO-201 cells with NRG1) was “not sufficient to rescue cells from kinase inhibition” and the “rescue from kinase inhibition by activating both PI3K and MAPK pathways” value [4] was “additive”. The “PI3K/MAPK pathway re-activation by RTK ligand in presence of kinase inhibitor” value [5] was “only re-activated the PI3K” and the “number of HER2-amplified breast cancer cell lines rescued from lapatinib” value [7] was 8 of the 9.

For “IGF: recombinant human IGF-1 purchased from Peprotech”, the “effect of RTK ligand … to kinase inhibitors” value [3] was “relatively little effect”, the “PI3K/MAPK pathway re-activation by RTK ligand in presence of kinase inhibitor” value [5] was “only re-activated the PI3K” and the “downstream signalling after receptor activation in non-rescued cells” value ([5]; COLO-201 and BT474 cell lines, IGF) was “downstream signalling via PI3K or MAPK was not observed”.

In the case of CCN1CC[C@@H](Nc2n[nH]c3nccc(Oc4ccc(NC(=O)c5ccnn(-c6ccc(F)cc6)c5=O)cc4F)c23)[C@@H](F)C1 [GDC-0712, N-(4-(3-((3S,4R)-1-ethyl-3-fluoropiperidine-4-ylamino)-1H-pyrazolo[3,4-b]pyridin-4-yloxy)-3-fluorophenyl)-2-(4-fluorophenyl)-3-oxo-2,3-dihydropyridazine-4-carboxamide], the “partial responses, PLX[…] with MET kinase inhibition” value (928MEL xenografts; [9]) is reported as 8 and the “tumor regression, B-raf antagonist plus c-met antagonist versus PLX[…] alone” value (928MEL xenografts) is reported as “greater effect on tumor regression”.

C[C@@H](Oc1cc(-c2cnn(C3CCNCC3)c2)cnc1N)c1c(Cl)ccc(F)c1Cl [crizotinib, 3-[(1R)-1-(2,6-dichloro-3-fluorophenyl)ethoxy]-5-(1-piperidin-4-ylpyrazol-4-yl)pyridin-2-amine] was tested, and the “emergence of lapatinib resistance under MET kinase inhibition” value [8] was “delayed the emergence of lapatinib resistance” and the “reversal of HGF survival rescue by MET inhibition” value ([2]; PLX[…], HGF 50 ng/mL, crizotinib 0.5 μM, 72 h) was “survival rescue by HGF was reversed”.
